# From ChEMBL document CHEMBL3046832, “Synthesis of some sulfonamides, disubstituted sulfonylureas or thioureas and some structurally related variants. A class of promising antitumor agents” (2007)
# Assays:
# Format in all cases: functional
# SF-268 = test: Cytotoxicity against Homo sapiens (human) SF268 cells after 48 hr by SRB assay; conditions: SF-268, 48 h
# HOP-92 = test: Cytotoxicity against Homo sapiens (human) HOP92 cells after 48 hr by SRB assay; conditions: HOP-92, 48 h
# NCI-H460 = test: Cytotoxicity against Homo sapiens (human) NCI-H460 cells assessed as cellular growth after 48 hr by Alamar blue assay; parameters: concentration or dose not given beside the values
# SNB-75 = test: Cytotoxicity against Homo sapiens (human) SNB75 cells after 48 hr by SRB assay; conditions: SNB-75, 48 h
# MOLT-4 = test: Cytotoxicity against Homo sapiens (human) MOLT4 cells after 48 hr by SRB assay; conditions: MOLT-4, 48 h
# LOX IMVI = test: Cytotoxicity against Homo sapiens (human) LOXIMVI cells after 48 hr by SRB assay
# A549 = test: Cytotoxicity against Homo sapiens (human) A549 cells after 48 hr by SRB assay; conditions: A549, 48 h
# HCT-116 = test: Cytotoxicity against Homo sapiens (human) HCT116 cells after 48 hr by SRB assay; conditions: HCT-116, 48 h
# CCRF-CEM = test: Cytotoxicity against Homo sapiens (human) CCRF-CEM cells after 48 hr by SRB assay
# OVCAR-5 = test: Cytotoxicity against Homo sapiens (human) OVCAR5 cells after 48 hr by SRB assay; conditions: OVCAR-5, 48 h
# K562 = test: Cytotoxicity against Homo sapiens (human) K562 cells after 48 hr by SRB assay; conditions: K562, 48 h
# TK-10 = test: Cytotoxicity against Homo sapiens (human) TK10 cells after 48 hr by SRB assay; conditions: TK-10, 48 h
# SF-295 = test: Cytotoxicity against Homo sapiens (human) SF295 cells after 48 hr by SRB assay; conditions: SF-295, 48 h
# [1] = Cytotoxicity against Homo sapiens (human) renal cancer cells after 48 hr by SRB assay; conditions: Cancer cell lines
# SN12C = test: Cytotoxicity against Homo sapiens (human) SN12C cells after 48 hr by SRB assay
# OVCAR-8 = test: Cytotoxicity against Homo sapiens (human) OVCAR8 cells after 48 hr by SRB assay; conditions: OVCAR-8, 48 h
# HOP-62 = test: Cytotoxicity against Homo sapiens (human) HOP62 cells after 48 hr by SRB assay; conditions: HOP-62, 48 h
# Hs-578T = test: Cytotoxicity against Homo sapiens (human) Hs578T cells after 48 hr by SRB assay
# UACC-257 = test: Cytotoxicity against Homo sapiens (human) UACC257 cells after 48 hr by SRB assay; conditions: UACC-257, 48 h
# [2] = Cytotoxicity against Homo sapiens (human) colon cancer cells after 48 hr by SRB assay; conditions: Cancer cell lines
# NCI-H226 = test: Cytotoxicity against Homo sapiens (human) NCI-H226 cells after 48 hr by SRB assay; conditions: NCI-H226, 48 h
SMILES,GI50 (SF-268) [µM],GI50 (HOP-92) [µM],Activity (NCI-H460),GI50 (SNB-75) [µM],GI50 (MOLT-4) [µM],GI50 (LOX IMVI) [µM],GI50 (A549) [µM],GI50 (HCT-116) [µM],GI50 (CCRF-CEM) [µM],GI50 (OVCAR-5) [µM],GI50 (SF-295) [µM],GI50 [1] [µM],TGI [1] [µM],GI50 (SN12C) [µM],GI50 (OVCAR-8) [µM],GI50 (HOP-62) [µM],GI50 (Hs-578T) [µM],GI50 (UACC-257) [µM],GI50 [2] [µM],TGI [2] [µM],further results
NS(=O)(=O)c1ccc(N2N=C3c4ccccc4CC3C2c2cccs2)cc1 (stereo unspecified),> 100,25.8,<=32%,31.1,18.9,19.1,13.1,10.7,31.8,26.6,16.2,21.9,43.7,23.5,15.3,16.9,28.7,29.7,28,74.5,GI50 (K562): 57.5 µM; GI50 (TK-10): 13.2 µM
O=S(=O)(NC(=S)Nc1ccccc1)c1ccc(N2N=C3c4ccccc4CC3C2c2cccs2)cc1 (stereo unspecified),30.7,24.9,<=32%,71.9,17.5,24.4,15.7,15.1,30.5,17.9,18.9,32.5,47,21.4,39,20.3,20.9,29.1,25.9,75.9,GI50 (NCI-H226): 27.2 µM; GI50 (K562): 31.3 µM; GI50 (TK-10): 12.2 µM
O=C(NC(=S)NS(=O)(=O)c1ccc(N2N=C3c4ccccc4CC3C2c2cccs2)cc1)c1ccccc1 (stereo unspecified),> 100,53,<=32%,> 100,26.2,15.2,20.3,–,27.9,18.7,25.4,45.8,87.2,26,20.3,–,16.1,42.8,35.5,85.6,–
O=C1CS/C(=N\S(=O)(=O)c2ccc(N3N=C4c5ccccc5CC4C3c3cccs3)cc2)N1C(=O)c1ccccc1 (stereo unspecified),> 100,37.3,<=32%,> 100,22.2,22.7,70.5,22,37.5,32.2,31.7,59.4,99.1,90.7,45.7,32.9,25.3,> 100,40.4,79.8,GI50 (NCI-H226): 58.5 µM; GI50 (TK-10): 49.6 µM
O=S(=O)(/N=c1\scc(-c2ccccc2)n1-c1ccccc1)c1ccc(N2N=C3c4ccccc4CC3C2c2cccs2)cc1 (stereo unspecified),> 100,> 100,<=32%,> 100,19,32.4,57,–,50.3,88.9,54.5,72.1,96.5,94.3,47.2,73.2,60.6,> 100,68.1,96.9,GI50 (NCI-H226): 78.9 µM; GI50 (K562): > 100 µM; GI50 (TK-10): 32.7 µM
O=C(c1ccccc1)n1c(-c2ccccc2)cs/c1=N\S(=O)(=O)c1ccc(N2N=C3c4ccccc4CC3C2c2cccs2)cc1 (stereo unspecified),> 100,> 100,<=32%,> 100,30.5,30.7,39.5,30.5,41.3,34.3,37.1,44.8,95.3,44.4,42.9,23.7,17,45.7,53.3,90.4,GI50 (NCI-H226): 30.1 µM; GI50 (K562): 27.6 µM; GI50 (TK-10): 30.5 µM
O=C1CCS/C(=N\S(=O)(=O)c2ccc(N3N=C4c5ccccc5CC4C3c3cccs3)cc2)N1c1ccccc1 (stereo unspecified),> 100,35.9,<=32%,30.2,47,13.6,14.4,20.3,28,22.4,15.8,–,–,94.3,19.2,18.6,60.6,24.2,24.1,60.7,GI50 (NCI-H226): 26.5 µM; GI50 (K562): > 100 µM; GI50 (TK-10): 32.7 µM
O=C1CCS/C(=N\S(=O)(=O)c2ccc(N3N=C4c5ccccc5CC4C3c3cccs3)cc2)N1C(=O)c1ccccc1 (stereo unspecified),13.7,25.4,<=32%,> 100,50.4,7.61,10.6,10,15,25.8,32.7,17.7,38.1,16.7,0.81,31.1,2.85,0.33,27.4,52.6,GI50 (NCI-H226): 15.9 µM; GI50 (K562): 26.4 µM; GI50 (TK-10): 24.5 µM
O=C1CS/C(=N\S(=O)(=O)c2ccc(N3N=C4c5ccccc5CC4C3c3cccs3)cc2)N(c2ccccc2)C1 (stereo unspecified),> 100,79.9,<=32%,> 100,0.01,21.2,47.2,12.5,36.8,34.5,32.7,43.9,96.4,34.3,25.4,17.4,20.5,42.3,37.2,66.3,GI50 (NCI-H226): 22.3 µM; GI50 (K562): 10.3 µM
